Test results reported in US10662204B2 (PFIZER INC., priority 2018, dated 2020).

Tests used:
[1] = target: T1, GDP-loaded KRAS (1-169) G12C, C51S, C80L, C118S (Homo sapiens, UniProt P01116, C118S/C51S/C80L/G12C); assay: Mass Spectrometry Reactivity Assay (MSRA): covalent adduct of compound and KRAS G12C, Percent Modification; type: binding; conditions: for MSRA (% modification) 10 μM 0.50 hr / MSRA (% modification) 10 μM 0.25 hr: 10 μM compound; for MSRA (% modification) 5.0 μM 0.25 hr / MSRA (% modification) 5.0 μM 0.017 hr: 5.0 μM compound
T1 construct: GDP-loaded KRAS (1-169) G12C, C51S, C80L, C118S
Procedure, shortened: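 GDP-loaded KRAS(1-169) G12C/C51S/C80L/C118S at 5 μM in 25 mM Hepes pH 7.5, 200 mM NaCl, 5% glycerol incubated at RT with compound (typically 5 or 10 μM final, 1% DMSO). Quenched in formic acid at 1-60 min; intact-protein LC-TOF MS gives % modification = modified/(modified+unmodified).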

KRAS G12C = KRAS G12C (Homo sapiens, UniProt P01116, G12C); assay: Cell Activity Assay: accumulation of GDP-bound KRAS G12C in MIAPaCa-2 cells (Raf-1 RBD capture, MSD readout); type: cell-based; set-up: endogenous in cells; host or cells: MIAPaCa-2; conditions: 6 hours, assay limit is 30.00
Procedure, shortened: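 MIAPaCa-2 cells exposed 6 h at 37 °C to 3-fold compound dilutions (0.3% DMSO final), then lysed. Active GTP-KRAS captured on Raf-1 RBD-coated plates, detected with anti-pan-Ras and SULFO-TAG secondary by MSD electrochemiluminescence. Signal normalized to DMSO and maximum inhibition; IC50 from 4-parameter fit.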

Row | MSRA (% modification) 10 μM 0.50 hr [1] | IC50 (KRAS G12C) | MSRA (% modification) 10 μM 0.25 hr [1] | MSRA (% modification) 5.0 μM 0.25 hr [1] | MSRA (% modification) 5.0 μM 0.017 hr [1] | SMILES
1 | 67% | 0.545 µM | – | 46% | – | C=CC(=O)N1CCN(c2ncnc3c(Oc4c(C)c(Cl)cc5[nH]ncc45)nccc23)CC1 [Example 14A, 1-(4-{8-[(6-chloro-5-methyl-1H-indazol-4-yl)oxy]pyrido[3,4-d]pyrimidin-4-yl}piperazin-1-yl)prop-2-en-1-one]
2 | 14% | 27.6 µM | – | – | – | C=CC(=O)N1CCN(c2ncnc3c(Oc4c(Cl)c(F)cc5[nH]ncc45)nccc23)C[C@@H]1C [Example 26A, 1-[(2S)-4-{8-[(5-chloro-6-fluoro-1H-indazol-4-yl)oxy]pyrido[3,4-d]pyrimidin-4-yl}-2-methylpiperazin-1-yl]prop-2-en-1-one]
3 | – | 0.006 µM | – | – | 58% | C=CC(=O)N1CCN(c2nc(O[C@@H]3CN(C)C[C@H]3C(F)F)nc3c(Oc4c(Cl)c(F)cc5[nH]ncc45)nccc23)CC1 (single isomer, unassigned) [Example 58I]
4 | 16% | > 30 µM | – | – | – | C=CC(=O)N1CCN(c2nc(NCCc3nncn3C)nc3c(Oc4c(C)ccc5[nH]ncc45)cccc23)CC1 [Example 16F, 1-[4-(8-[(5-methyl-1H-indazol-4-yl)oxy]-2-{[2-(4-methyl-4H-1,2,4-triazol-3-yl)ethyl]amino}quinazolin-4-yl)piperazin-1-yl]prop-2-en-1-one]
5 | – | 0.169 µM | – | 57% | – | C=CC(=O)N1CCN(c2nc(OC[C@@H]3C[C@@H](F)CN3C)nc3c(Oc4c(Cl)c(F)cc5[nH]ncc45)nccc23)CC1 [Example 16H, 1-[4-(8-[(5-chloro-6-fluoro-1H-indazol-4-yl)oxy]-2-{[(2S,4R)-4-fluoro-1-methylpyrrolidin-2-yl]methoxy}pyrido[3,4-d]pyrimidin-4-yl)piperazin-1-yl]prop-2-en-1-one]
6 | – | 0.401 µM | 79% | 78% | – | C=CC(=O)N1CCN(c2nc(OCC3CCC(=O)N3C)nc3c(Oc4c(Cl)c(F)cc5[nH]ncc45)nc(Cl)cc23)CC1 (stereo not drawn) [Example 14G, 5-[({4-(4-acryloylpiperazin-1-yl)-6-chloro-8-[(5-chloro-6-fluoro-1H-indazol-4-yl)oxy]pyrido[3,4-d]pyrimidin-2-yl}oxy)methyl]-1-methylpyrrolidin-2-one]
7 | 74% | 0.51 µM | 59% | 56% | – | C=CC(=O)N1CCN(c2nc(OCCN(C)C)nc3c(Oc4c(Cl)c(C)cc5[nH]ncc45)cccc23)CC1 [Example 15E, 1-(4-{8-[(5-chloro-6-methyl-1H-indazol-4-yl)oxy]-2-[2-(dimethylamino)ethoxy]quinazolin-4-yl}piperazin-1-yl)prop-2-en-1-one]
8 | – | 0.168 µM | – | – | 19% | C=CC(=O)N1CCN(c2nc(O[C@@H]3CN(C)C[C@H]3OCC(F)F)nc3c(Oc4c(Cl)c(F)cc5[nH]ncc45)nccc23)CC1 (racemic) [Example 32I, rac-1-[4-(8-[(5-chloro-6-fluoro-1H-indazol-4-yl)oxy]-2-{[(3R,4R)-4-(2,2-difluoro-ethoxy)-1-methyl-pyrrolidin-3-yl]oxy}pyrido [3,4-d]pyrimidin-4-yl)piperazin-1-yl]prop-2-en-1-one]

The remaining lines, values behind:

Row | SMILES | MSRA (% modification) 10 μM 0.50 hr [1] | IC50 (KRAS G12C) | MSRA (% modification) 10 μM 0.25 hr [1] | MSRA (% modification) 5.0 μM 0.25 hr [1] | MSRA (% modification) 5.0 μM 0.017 hr [1]
9 | C=CC(=O)N1CCN(c2nc(OCCCN(C)C)nc3c(Oc4c(C)ccc5[nH]ncc45)nccc23)CC1 [Example 04B, 1-(4-{2-[3-(dimethylamino)propoxy]-8-[(5-methyl-1H-indazol-4-yl)oxy]pyrido[3,4-d]pyrimidin-4-yl}piperazin-1-yl)prop-2-en-1-one] | 21% | 23 µM | – | – | –
10 | C=CC(=O)N1CCN(c2nc(OC[C@@H]3CCCN3C)nc3c(Oc4c(Cl)c(F)cc5[nH]ncc45)nc(Cl)cc23)C[C@H]1C [Example 04G, 1-[(2R)-4-(6-chloro-8-[(5-chloro-6-fluoro-1H-indazol-4-yl)oxy]-2-{[(2S)-1-methylpyrrolidin-2-yl]methoxy}pyrido[3,4-d]pyrimidin-4-yl)-2-methylpiperazin-1-yl]prop-2-en-1-one] | – | 0.393 µM | 49% | – | –
11 | C=CC(=O)N1CCN(c2nc(OCCN(C)C)nc3c(Oc4c(Cl)c(C)cc5[nH]ncc45)cc(Cl)cc23)CC1 [Example 13E, 1-(4-{6-chloro-8-[(5-chloro-6-methyl-1H-indazol-4-yl)oxy]-2-[2-(dimethylamino)ethoxy]quinazolin-4-yl}piperazin-1-yl)prop-2-en-1-one] | 79% | 0.452 µM | 75% | – | –
12 | C=CC(=O)N1CCN(c2nc(N3CC[C@@H](N(C)C)C3)nc3c(Oc4c(C)ccc5[nH]ncc45)cccc23)CC1 [Example 09E, 1-(4-{2-[(3R)-3-(dimethylamino)pyrrolidin-1-yl]-8-[(5-methyl-1H-indazol-4-yl)oxy]quinazolin-4-yl}piperazin-1-yl)prop-2-en-1-one] | 24% | 7.4 µM | – | – | –
13 | C=CC(=O)N1CCN(c2nc(N3CC(N(C)C)C3)nc3c(Oc4c(C)ccc5[nH]ncc45)cccc23)CC1 [Example 02E, 1-(4-{2-[3-(dimethylamino)azetidin-1-yl]-8-[(5-methyl-1H-indazol-4-yl)oxy]quinazolin-4-yl}piperazin-1-yl)prop-2-en-1-one] | 32% | 6.46 µM | – | – | –
14 | C=CC(=O)N1CCN(c2nc(Oc3cccnc3)nc3c(Oc4c(Cl)c(F)cc5[nH]ncc45)nccc23)CC1 [Example 13I, 1-(4-{8-[(5-chloro-6-fluoro-1H-indazol-4-yl)oxy]-2-(pyridin-3-yloxy)pyrido [3,4-d]pyrimidin-4-yl}piperazin-1-yl)prop-2-en-1-one] | – | 0.777 µM | – | 44% | –
15 | C=CC(=O)N1CCN(c2nc(N3CC[C@H](N(C)C)C3)nc3c(Oc4c(C)ccc5[nH]ncc45)cccc23)CC1 [Example 08E] | 25% | 10.7 µM | – | – | –
16 | C=CC(=O)N1CCN(c2ncnc3c(Oc4c(C)ccc5[nH]ncc45)nc(C(F)(F)F)cc23)CC1 [Example 03A, 1-(4-{8-[(5-methyl-1H-indazol-4-yl)oxy]-6-(trifluoromethyl)pyrido[3,4-d]pyrimidin-4-yl}piperazin-1-yl)prop-2-en-1-one] | 28% | 2.74 µM | – | – | –
17 | C=CC(=O)N1CCN(c2nc(O[C@@H]3CN(C)C[C@H]3OC)nc3c(Oc4c(Cl)c(F)cc5[nH]ncc45)nccc23)CC1 [Example 10I, 1-[4-(8-[(5-chloro-6-fluoro-1H-indazol-4-yl)oxy]-2-{[(3R,4R)-4-methoxy-1-methylpyrrolidin-3-yl]oxy}pyrido[3,4-d]pyrimidin-4-yl)piperazin-1-yl]prop-2-en-1-one] | – | 0.022 µM | – | 82% | 70%
18 | C=CC(=O)N1CCN(c2ncnc3c(Oc4c(F)ccc5[nH]ncc45)nccc23)CC1 [Example 08A, 1-(4-{8-[(5-fluoro-1H-indazol-4-yl)oxy]pyrido[3,4-d]pyrimidin-4-yl}piperazin-1-yl)prop-2-en-1-one] | 6% | 11.1 µM | – | – | –
19 | C=CC(=O)N1CCN(c2nc(O[C@@H]3CN(C)C[C@H]3OC)nc3c(Oc4c(Cl)c(F)cc5[nH]ncc45)nc(C)cc23)CC1 [Example 01K, 1-[4-(8-[(5-chloro-6-fluoro-1H-indazol-4-yl)oxy]-2-{[(3R,4R)-4-methoxy-1-methylpyrrolidin-3-yl]oxy}-6-methylpyrido[3,4-d]pyrimidin-4-yl)piperazin-1-yl]prop-2-en-1-one] | – | 0.065 µM | – | – | 65%
20 | C=CC(=O)N1CCN(c2nc(OC[C@@H]3C[C@H](OC)CN3C)nc3c(Oc4c(Cl)c(F)cc5[nH]ncc45)nccc23)CC1 [Example 12H, 1-[4-(8-[(5-chloro-6-fluoro-1H-indazol-4-yl)oxy]-2-{[(2S,4S)-4-methoxy-1-methylpyrrolidin-2-yl]methoxy}pyrido[3,4-d]pyrimidin-4-yl)piperazin-1-yl]prop-2-en-1-one] | – | 0.691 µM | 67% | 49% | –
21 | C=CC(=O)N1CCN(c2ncnc3c(Oc4c(Cl)c(F)cc5[nH]ncc45)nccc23)CC1 [Example 02C, 1-(4-{8-[(5-chloro-6-fluoro-1H-indazol-4-yl)oxy]pyrido[3,4-d]pyrimidin-4-yl}piperazin-1-yl)prop-2-en-1-one] | 60% | 1.01 µM | – | 12% | –
22 | C=CC(=O)N1CCN(c2ncnc3c(Oc4c(C)c(C)cc5[nH]ncc45)nccc23)CC1 [Example 12A, 1-(4-{8-[(5,6-dimethyl-1H-indazol-4-yl)oxy]pyrido[3,4-d]pyrimidin-4-yl}piperazin-1-yl)prop-2-en-1-one] | 38% | 2.95 µM | – | – | –
23 | C=CC(=O)N1CCN(c2nc(OC[C@@H]3CCCN3C)nc3c(Oc4c(Cl)c(F)cc5[nH]ncc45)nc(Cl)cc23)C[C@@H]1C [Example 07G, 1-[(2S)-4-(6-chloro-8-[(5-chloro-6-fluoro-1H-indazol-4-yl)oxy]-2-{[(2S)-1-methylpyrrolidin-2-yl]methoxy}pyrido[3,4-d]pyrimidin-4-yl)-2-methylpiperazin-1-yl]prop-2-en-1-one] | – | 0.404 µM | 77% | – | –
